Test results taken from ChEMBL document CHEMBL5357077, “Synthesis and Biological Evaluation of β-Lactam Derivatives Targeting Speckle-Type POZ Protein (SPOP)” (ACS Med Chem Lett, 2024).
Calls of active or inactive are those of the source. The rule behind the calls is not given here.

What was measured:
Speckle-type POZ protein [1] = target: T1, Speckle-type POZ protein (Homo sapiens, UniProt O43791); experiment: (§1) Inhibition of GST-tagged human SPOP MATH domain (28 to 166 residues) expressed in Escherichia coli BL21 CodonPlus (DE3)-RIPL cells using FITC-LACDEVTSTTSSSTA peptide as substrate assessed as inhibition of substrate binding to SPOP preincubated with compound for 30 mins followed by substrate addition and measured immediately by fluorescence polarization assay
769-P = experiment: Inhibition of colony formation in human 769-P cells at 0.4 to 50 uM incubated for 10 to 14 days by crystal violet staining based imaging analysis; assay type: functional, cell-based; conditions: dose 0.4-50 µM, time 10-14 day
HK-2 = experiment: Cytotoxicity against HK-2 cells assessed as inhibition of cell proliferation measured after 72 hrs by Celltiter Glo luminescent cell viability assay; assay type: toxicity, cell-based; conditions: human, hk-2, 72 h
Speckle-type POZ protein [2] = target: T1, Speckle-type POZ protein; experiment: Inhibition of GST-tagged human SPOP MATH domain (28 to 166 residues) expressed in Escherichia coli BL21 CodonPlus (DE3)-RIPL cells using Myc-DUSP7 as substrate assessed as disruption of SPOP binding to substrate at 1 to 40 uM incubated for 2 hrs by GST pull-down assay; conditions: dose 1-40 µM
OS-RC-2 = experiment: Inhibition of colony formation in human OS-RC-2 cells at 0.4 to 50 uM incubated for 10 to 14 days by crystal violet staining based imaging analysis; assay type: functional, cell-based; conditions: dose 0.4-50 µM, time 10-14 day
A498 = experiment: Inhibition of colony formation in human A498 cells at 0.4 to 50 uM incubated for 10 to 14 days by crystal violet staining based imaging analysis; assay type: functional, cell-based; conditions: dose 0.4-50 µM, time 10-14 day
786-0 [3] = experiment: Inhibition of colony formation in human 786-0 cells at 0.4 to 50 uM incubated for 10 to 14 days by crystal violet staining based imaging analysis; assay type: functional, cell-based; conditions: dose 0.4-50 µM, time 10-14 day
Speckle-type POZ protein [4] = target: T1, Speckle-type POZ protein; experiment: as §1, with “Potency index, ratio of 230D7 IC50 to test compound IC50 for inhibition” for “Inhibition”
786-0 [5] = experiment: Antiproliferative activity against human 786-0 cells assessed as inhibition of cell proliferation measured after 72 hrs by Celltiter Glo luminescent cell viability assay; assay type: functional, cell-based
Speckle-type POZ protein [6] = target: T1, Speckle-type POZ protein; experiment: Inhibition of GST-tagged human SPOP MATH domain (28 to 166 residues) expressed in Escherichia coli BL21 CodonPlus (DE3)-RIPL cells using Myc-PTEN as substrate assessed as disruption of SPOP binding to substrate at 1 to 40 uM incubated for 2 hrs by GST pull-down assay; conditions: dose 1-40 µM
Speckle-type POZ protein [7] = target: T1, Speckle-type POZ protein; experiment: Binding affinity to GST-tagged human SPOP MATH domain (28 to 166 residues) expressed in Escherichia coli BL21 CodonPlus (DE3)-RIPL cells assessed as equilibrium dissociation constant by SPR analysis

T1 sequence (O43791 whole entry, the tested form may be a part): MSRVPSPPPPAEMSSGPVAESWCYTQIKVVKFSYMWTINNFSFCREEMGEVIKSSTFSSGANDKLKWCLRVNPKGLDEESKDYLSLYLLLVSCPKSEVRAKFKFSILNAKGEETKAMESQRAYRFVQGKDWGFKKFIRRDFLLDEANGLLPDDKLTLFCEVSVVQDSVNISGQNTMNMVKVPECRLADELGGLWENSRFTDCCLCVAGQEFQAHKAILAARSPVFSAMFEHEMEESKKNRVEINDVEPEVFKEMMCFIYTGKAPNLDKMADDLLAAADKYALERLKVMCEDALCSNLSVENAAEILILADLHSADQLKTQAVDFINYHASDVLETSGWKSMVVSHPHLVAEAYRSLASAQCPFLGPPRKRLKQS

Row | IC50 (Speckle-type POZ protein [1]) | Structure (SMILES) | also measured
1 | > 100 µM | C=CC1=C(C(=O)O)N2C(=O)[C@@H](NC(=O)c3ccc(Cl)o3)[C@H]2SC1 | 
2 | 0.58 µM | C=CC1=C(C(=O)O)N2C(=O)[C@@H](NC(=O)c3ccc(CCl)o3)[C@H]2SC1 | inhibition (769-P): Active; Activity (HK-2): Non-Toxic; inhibition (Speckle-type POZ protein [2]): Active; inhibition (OS-RC-2): Active; inhibition (A498): Active; inhibition (786-0 [3]): Active; Ratio IC50 (Speckle-type POZ protein [4]): 22; Activity (786-0 [5]): Active; inhibition (Speckle-type POZ protein [6]): Active; Kd (Speckle-type POZ protein [7]): 1540 nM
3 | 20.9 µM | C=CC1=C(C(=O)O)N2C(=O)[C@@H](NC(=O)c3ccc(CF)o3)[C@H]2SC1 | 
4 | 98 µM | C=CC1=C(C(=O)O)N2C(=O)[C@@H](NC(=O)c3ccc(COc4ccc(F)cc4Cl)o3)[C@H]2SC1 | 
5 | > 100 µM | C=CC1=C(C(=O)O)N2C(=O)[C@@H](NC(=O)c3ccc(CO)o3)[C@H]2SC1 | 
6 | 20.5 µM | CC1(C)S[C@@H]2[C@H](NC(=O)c3ccc(COc4ccc(Br)cc4Cl)o3)C(=O)N2[C@H]1C(=O)O | 
7 | > 100 µM | C=CC1=C(C(=O)O)N2C(=O)[C@@H](NC(=O)c3ccc(CBr)o3)[C@H]2SC1 | 
8 | > 100 µM | C=CC1=C(C(=O)O)N2C(=O)[C@@H](NC(=O)c3ccc(COc4ccc(Br)cc4)o3)[C@H]2SC1 | 
9 | 52.1 µM | C=CC1=C(C(=O)O)N2C(=O)[C@@H](NC(=O)c3ccc(C(=O)Nc4ccc(Br)cc4Cl)o3)[C@H]2SC1 | 
10 | > 100 µM | O=C(O)C1=C(CO)CS[C@@H]2[C@H](NC(=O)c3ccc(COc4ccc(Br)cc4Cl)o3)C(=O)N12 | 
11 | 20.7 µM | C=CC1=C(C(=O)O)N2C(=O)[C@@H](NC(=O)c3ccc(C)o3)[C@H]2SC1 | 
12 | > 100 µM | C=CC1=C(C(=O)O)N2C(=O)[C@@H](NC(=O)c3ccc(COc4c(C)cc(Br)cc4Cl)o3)[C@H]2SC1 | 
13 | 6.33 µM | C=CC1=C(C(=O)O)N2C(=O)[C@@H](NC(=O)c3ccc(COc4ccccc4)o3)[C@H]2SC1 | Ratio IC50 (Speckle-type POZ protein [4]): 2
14 | > 100 µM | CC1=C(C(=O)O)N2C(=O)[C@@H](NC(=O)c3ccc(COc4ccc(Br)cc4Cl)o3)[C@H]2SC1 | 
15 | 11.7 µM | C=CC1=C(C(=O)O)N2C(=O)[C@@H](NC(=O)c3ccc(COc4ccc(C#N)cc4Cl)o3)[C@H]2SC1 | 
16 | > 100 µM | C=CC1=C(C(=O)O)N2C(=O)[C@@H](NC(=O)c3ccc(COc4ccc(C#N)cc4)o3)[C@H]2SC1 | 
17 | 15.1 µM | C=CC1=C(C(=O)O)N2C(=O)[C@@H](NC(=O)c3ccc(COc4ccc(Br)cc4Cl)s3)[C@H]2SC1 | 
18 | 53.3 µM | O=C(O)C1=C(Cl)CS[C@@H]2[C@H](NC(=O)c3ccc(COc4ccc(Br)cc4Cl)o3)C(=O)N12 | 
19 | 66 µM | C=CC1=C(C(=O)O)N2C(=O)[C@@H](NC(=O)c3ccc(COCc4ccc(Br)cc4Cl)o3)[C@H]2SC1 | 
20 | 32.3 µM | Cc1nnc(SCC2=C(C(=O)O)N3C(=O)[C@@H](NC(=O)c4ccc(COc5ccc(Br)cc5Cl)o4)[C@H]3SC2)s1 | 

Row | IC50 (Speckle-type POZ protein [1]) | Structure (SMILES) | also measured
21 | 34.6 µM | Cn1nnnc1SCC1=C(C(=O)O)N2C(=O)[C@@H](NC(=O)c3ccc(COc4ccc(Br)cc4Cl)o3)[C@H]2SC1 | 
22 | > 100 µM | C=CC1=C(C(=O)O)N2C(=O)[C@@H](NC(=O)c3ccc(COc4cccc(Cl)c4)o3)[C@H]2SC1 | 
23 | 81.2 µM | C=CC1=C(C(=O)O)N2C(=O)[C@@H](NC(=O)c3ccco3)[C@H]2SC1 | 
24 | 74.4 µM | C=CC1=C(C(=O)O)N2C(=O)[C@@H](NC(=O)c3ccc(COc4cccnc4)o3)[C@H]2SC1 | 
25 | > 100 µM | COCC1=C(C(=O)O)N2C(=O)[C@@H](NC(=O)c3ccc(COc4ccc(Br)cc4Cl)o3)[C@H]2SC1 | 
26 | 30.1 µM | C=CC1=C(C(=O)O)N2C(=O)[C@@H](NC(=O)c3cccc(COc4ccc(Br)cc4Cl)c3)[C@H]2SC1 | 
27 | > 100 µM | C=CC1=C(C(=O)O)N2C(=O)[C@@H](NC(=O)c3ccc(CNc4ccc(Br)cc4Cl)o3)[C@H]2SC1 | 
28 | > 100 µM | C=CC1=C(C(=O)O)N2C(=O)[C@@H](NC(=O)c3ccc(Br)o3)[C@H]2SC1 | 
29 | 52.6 µM | C/C=C/C1=C(C(=O)O)N2C(=O)[C@@H](NC(=O)c3ccc(COc4ccc(Br)cc4Cl)o3)[C@H]2SC1 | 
30 | > 100 µM | C=CC1=C(C(=O)O)N2C(=O)[C@@H](NC(=O)c3ccc(C(=O)OC)o3)[C@H]2SC1 | 
31 | > 100 µM | C=CC1=C(C(=O)O)N2C(=O)[C@@H](NC(=O)c3ccc(COc4ccc(Cl)cc4Br)o3)[C@H]2SC1 | 
32 | 42.1 µM | O=C(O)C1=CCS[C@@H]2[C@H](NC(=O)c3ccc(COc4ccc(Br)cc4Cl)o3)C(=O)N12 | 
33 | > 100 µM | C=CC1=C(C(=O)O)N2C(=O)[C@@H](NC(=O)c3ccc(COCC)o3)[C@H]2SC1 | 
34 | 26 µM | C=CC1=C(C(=O)O)N2C(=O)[C@@H](NC(=O)c3ccc(COC)o3)[C@H]2SC1 | 
35 | 12.5 µM | CC(=O)OCC1=C(C(=O)O)N2C(=O)[C@@H](NC(=O)c3ccc(COc4ccc(Br)cc4Cl)o3)[C@H]2SC1 | 
36 | > 100 µM | C[C@H]1[C@H](NC(=O)c2ccc(COc3ccc(Br)cc3Cl)o2)C(=O)N1S(=O)(=O)O | 
37 | > 100 µM | C=CC1=C(C(=O)O)N2C(=O)[C@@H](NC(=O)c3ccc(COc4ccccc4Cl)o3)[C@H]2SC1 | 
38 | 7.03 µM | C=CC1=C(C(=O)O)N2C(=O)[C@@H](NC(=O)c3ccc(COc4ccc(F)cc4)o3)[C@H]2SC1 | 
39 | 5.35 µM | C=CC1=C(C(=O)O)N2C(=O)[C@@H](NC(=O)c3ccc(COc4ccc(Br)cc4Cl)o3)[C@H]2SC1 | Ratio IC50 (Speckle-type POZ protein [4]): 3
